For orientation: IC50 means the point on the concentration scale where inhibition reaches its midpoint. Low values mean greater potency in that assay, high ones weaker potency in that assay. As a reminder, the inhibition is the percentage by which the read-out fell short of the control.

Bounds are passed on as bounds.

Data on seven compounds can be found in patent US8785459B2, “Quinazoline compounds as kinase inhibitors” (Development Center for Biotechnology, priority 2011, dated 2014).

One assay addresses B-Raf (Homo sapiens (Human), UniProt P15056). Briefly: Raf kinase assay (B-Raf), [33P] incorporation into MEK1(K97R). As to conditions: for inhibition at 1 µM: 1.0 μM compound, read-out: B-Raf inhibition at 1.0 μM. The assay is classed as biochemical. An outline of the steps:
(§1)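 [33P] transfer to kinase-dead MEK1(K97R) substrate (500 ng) measured after 30 min at 30 °C in Tris pH 7.5 buffer containing 8 μM ATP. Enzyme inputs were 2 ng for C-Raf and 5 ng for B-Raf and B-Raf V600E. Duplicate 3-fold serial dilutions gave the half-maximal inhibitory concentration.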

A further assay has as its target B-Raf (V600E) (Homo sapiens (Human), UniProt P15056, V600E). The experiment in a line: Raf kinase assay (B-Raf (V600E)), [33P] incorporation into MEK1(K97R). It counts as biochemical. An outline of the steps: as §1
A further assay deals with C-Raf (Homo sapiens (Human), UniProt P04049). The experiment in a line: Raf kinase assay (C-Raf), [33P] incorporation into MEK1(K97R). It counts as biochemical. The method, boiled down:
as §1

The target in the next assay is EGFR kinase (Homo sapiens (Human), UniProt P00533). The experiment in a line: EGFR kinase assay. The assay is classed as biochemical. Here is the method: Inhibition of EGFR kinase activity by compounds disclosed herein is quantified by measuring the amount of [^33P] incorporated into the substrate in the presence of a test compound. Briefly, a reaction mixture of 25 μL final volume containing 25 ng of EGFR kinase (EGFR kinase domain alone, Millipore), 3 μg of the substrate [poly(Glu-Tyr), Sigma], kinase reaction buffer (10 mM MOPS pH 7.0, 0.3 mM EDTA, 0.5% glycerol, 0.001% Brij-35, 10 mM MnCl2, 0.1 mg/ml BSA, 100 μM ATP, 0.1 μCi per well [^33P]-γ-ATP (2,500-3,000 Ci/mmol)), and a test compound (100 nM, diluted with 4% DMSO) or DMSO (as the control) was incubated at 30° C. for 30 minutes. The reaction was stopped by adding 5 μL of 3% phosphoric acid solution. The resultant reaction solution was then harvested onto a filter plate (UniFilter-96 GF/B, PerkinElmer), washed 20 times for 5 min with d.d. H2O, and followed by the addition of 30 μL of MicroScint™-20 Cocktail (PerkinElmer). The radioactivity retained on the filter membrane was measured by TopCount™ scintillation detector (PerkinElmer). The results were analyzed by using linear regression software (GraphPad Prism™ 4; GraphPad Software Inc.). IC50 value is defined as the concentration of the test compound which achieves a half-maximal inhibition of the kinase activity.
EGFR kinase, sequence (P00533 712-979): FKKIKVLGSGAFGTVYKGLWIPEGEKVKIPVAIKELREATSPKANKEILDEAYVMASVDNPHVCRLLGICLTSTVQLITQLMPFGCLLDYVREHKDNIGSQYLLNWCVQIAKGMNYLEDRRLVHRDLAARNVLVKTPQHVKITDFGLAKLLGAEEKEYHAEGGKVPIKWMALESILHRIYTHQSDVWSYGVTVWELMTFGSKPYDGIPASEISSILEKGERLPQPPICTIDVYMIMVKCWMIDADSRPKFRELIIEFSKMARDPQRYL

The target in another assay is VEGFR2 kinase (Homo sapiens (Human), UniProt P35968). Briefly: VEGFR2 kinase assay. It counts as biochemical. Here is the method: Inhibition of VEGFR2 kinase activity by compounds disclosed herein was quantified by measuring the amount of [^33P] incorporated into the substrate in the presence of a test compound. […] The reaction was then stopped by adding 5 μL of 3% phosphoric acid solution. The resultant solution was transferred to and harvested by a filter plate (UniFilter-96 GF/B, PerkinElmer). The filter plate was then washed 20 times with d.d. H2O for 5 min followed by the addition of 30 μL of MicroScint™-20 Cocktail (PerkinElmer). After the plate was sealed, the retained radioactivity on the filter was counted using a TopCount™ scintillation detector (PerkinElmer). […]
VEGFR2 kinase, sequence (P35968 834-1162): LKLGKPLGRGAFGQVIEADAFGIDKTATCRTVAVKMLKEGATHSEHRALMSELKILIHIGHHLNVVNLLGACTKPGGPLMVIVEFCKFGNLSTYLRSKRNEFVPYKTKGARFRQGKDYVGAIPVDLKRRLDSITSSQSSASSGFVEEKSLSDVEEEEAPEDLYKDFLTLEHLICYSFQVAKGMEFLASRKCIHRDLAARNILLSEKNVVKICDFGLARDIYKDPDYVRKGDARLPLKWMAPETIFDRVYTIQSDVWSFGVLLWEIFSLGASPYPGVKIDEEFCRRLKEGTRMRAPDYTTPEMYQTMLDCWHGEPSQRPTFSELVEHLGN

In a further assay the target is FGFR1 kinase (Homo sapiens (Human), UniProt P11362). The experiment in a line: FGFR1 kinase assay. The assay is classed as biochemical. Here is the method:
Inhibition of FGFR1 kinase activity by compounds disclosed herein was quantified by measuring the amount of [^33P] incorporated into the substrate in the presence of a test compound. Briefly, a reaction mixture of 25 μL final volume containing 1 ng of FGFR1 kinase (FGFR1 kinase domain alone, Millipore), 5 μg of the substrate [poly(Glu-Tyr), Sigma], kinase reaction buffer (14 mM MOPS pH 7.0, 0.2 mM EDTA, 0.5% glycerol, 0.001% Brij-35, 0.01% β-mercaptoethanol, 0.1 mg/ml BSA, 100 μM ATP, 0.1 μCi per well [^33P]-γ-ATP (2,500-3,000 Ci/mmol)), and a test compound (100 nM, diluted with 4% DMSO) or DMSO (as the control) was incubated at 30° C. for 60 minutes. The reaction was stopped by adding 5 μL of 3% phosphoric acid solution. The resultant reaction solution was then harvested onto a filter plate (UniFilter-96 GF/B, PerkinElmer), washed 20 times for 5 min with d.d. H2O, and followed by the addition of 30 μL of MicroScint™-20 Cocktail (PerkinElmer). The radioactivity retained on the filter membrane was measured by TopCount™ scintillation detector (PerkinElmer). The results were analyzed by using linear regression software (GraphPad Prism™ 4; GraphPad Software Inc.). IC50 value is defined as the concentration of the test compound which achieves a half-maximal inhibition of the kinase activity.

The target of a further assay is FLT3 kinase (Homo sapiens (Human), UniProt P36888). Briefly: FLT3 kinase assay. It counts as biochemical. Here is the method:
Inhibition of FLT3 kinase activity by compounds disclosed herein was quantified by measuring the amount of [^33P] incorporated into the substrate in the presence of a test compound. Briefly, a reaction mixture of 25 μL final volume containing 5 ng of Flt3 kinase (obtained by purifying recombinant N-terminal 6×His-tagged Flt3 kinase domain construct expressed from baculovirus), 5 μg of the substrate (Poly(Glu-Tyr, 4:1, Sigma)), kinase reaction buffer (20 mM MOPS pH 7.0, 1 mM EDTA, 5% glycerol, 0.01% Brij-35, 0.1% β-mercaptoethanol, 1 mg/mL BSA, 100 μM ATP, 0.1 μCi per well [^33P]-γ-ATP (2,500-3,000 Ci/mmol)), and a test compound (100 nM, diluted with 4% DMSO) or DMSO (as the control) was incubated at 30° C. for 30 minutes. The reaction was stopped by adding 5 μL of 3% phosphoric acid solution. The resultant reaction solution was then harvested onto a filter plate (UniFilter-96 GF/B, PerkinElmer), washed 20 times for 5 min with d.d. H2O, and followed by the addition of 30 μL of MicroScint™-20 Cocktail (PerkinElmer). The plate was then sealed and counted using a TopCount™ scintillation detector (PerkinElmer). IC50 value is defined as the concentration of the test compound which achieves a half-maximal inhibition of the kinase activity.

The next assay relates to A549. Briefly: Anti-proliferative activity, CellTiter-96 assay, A549. It counts as cell-based. The settings on record: Homo sapiens, A549 cells, 72 hours incubation. The method, boiled down:
(§2)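 Cells in DMEM with 10% FCS at 37° C., 5% CO2, plated at 2000 cells/well for 24 h, then exposed to graded compound concentrations for 72 h. CellTiter-96 Aqueous One reagent added for 4.0 h; viability read as absorbance at 490 nm.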

The next assay deals with A375. The experiment in a line: Anti-proliferative activity, CellTiter-96 assay, A375. As to conditions: Homo sapiens, A-375, A375 cells, 72 hours incubation. It counts as cell-based. An outline of the steps: as §2
The test system of a further assay is MDA-MB-231. Briefly: Anti-proliferative activity, CellTiter-96 assay, MDA-MB-231. It counts as cell-based. The settings on record: Homo sapiens, MDA-MB-231 cells, 72 hours incubation. The method, boiled down:
as §2

The subject of a further assay is COLO205. Briefly: Anti-proliferative activity, CellTiter-96 assay, COLO205. The assay is classed as cell-based. The settings on record: Homo sapiens, COLO 205, COLO205 cells, 72 hours incubation. The method, boiled down: as §2

C-Raf, sequence (P04049 whole entry): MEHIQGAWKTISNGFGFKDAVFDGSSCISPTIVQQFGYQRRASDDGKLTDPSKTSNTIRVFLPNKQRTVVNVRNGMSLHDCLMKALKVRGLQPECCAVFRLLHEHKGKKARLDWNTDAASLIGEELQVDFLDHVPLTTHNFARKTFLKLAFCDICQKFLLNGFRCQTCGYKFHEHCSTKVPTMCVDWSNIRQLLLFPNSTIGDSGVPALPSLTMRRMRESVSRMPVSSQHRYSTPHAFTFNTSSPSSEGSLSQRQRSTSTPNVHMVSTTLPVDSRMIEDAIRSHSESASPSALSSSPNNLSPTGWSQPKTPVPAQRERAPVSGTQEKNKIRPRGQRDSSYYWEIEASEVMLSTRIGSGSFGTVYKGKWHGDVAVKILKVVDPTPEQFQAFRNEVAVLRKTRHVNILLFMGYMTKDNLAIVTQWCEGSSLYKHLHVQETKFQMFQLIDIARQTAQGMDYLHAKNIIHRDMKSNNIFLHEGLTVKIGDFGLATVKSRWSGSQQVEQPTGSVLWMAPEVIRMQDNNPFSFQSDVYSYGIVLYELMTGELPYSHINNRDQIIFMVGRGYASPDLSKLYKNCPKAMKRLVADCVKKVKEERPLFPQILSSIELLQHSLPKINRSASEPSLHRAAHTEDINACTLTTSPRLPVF
B-Raf (V600E), sequence (P15056 whole entry V600E): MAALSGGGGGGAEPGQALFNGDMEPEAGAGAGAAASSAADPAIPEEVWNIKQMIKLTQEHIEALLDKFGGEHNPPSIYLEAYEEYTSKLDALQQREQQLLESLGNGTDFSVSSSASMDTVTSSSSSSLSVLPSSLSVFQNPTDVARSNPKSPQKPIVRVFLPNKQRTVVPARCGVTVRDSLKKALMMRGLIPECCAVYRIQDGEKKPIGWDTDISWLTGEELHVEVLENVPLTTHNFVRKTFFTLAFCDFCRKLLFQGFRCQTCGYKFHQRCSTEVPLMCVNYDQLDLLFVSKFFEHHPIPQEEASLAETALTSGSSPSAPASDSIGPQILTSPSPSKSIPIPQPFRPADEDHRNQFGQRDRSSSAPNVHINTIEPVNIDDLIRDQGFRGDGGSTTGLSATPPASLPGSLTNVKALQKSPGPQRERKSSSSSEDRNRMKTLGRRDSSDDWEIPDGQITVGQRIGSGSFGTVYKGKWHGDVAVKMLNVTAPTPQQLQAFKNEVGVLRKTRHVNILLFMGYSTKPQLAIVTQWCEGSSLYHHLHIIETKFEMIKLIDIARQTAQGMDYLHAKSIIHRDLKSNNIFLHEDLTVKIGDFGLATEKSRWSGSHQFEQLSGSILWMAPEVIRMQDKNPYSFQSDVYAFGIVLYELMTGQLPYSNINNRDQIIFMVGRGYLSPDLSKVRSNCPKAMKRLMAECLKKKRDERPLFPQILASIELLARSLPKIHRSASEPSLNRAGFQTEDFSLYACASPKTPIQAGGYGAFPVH
B-Raf, sequence (P15056 whole entry): as the sequence (P15056 whole entry V600E) above, with E600V counted along it
FLT3 kinase, sequence (P36888 610-943): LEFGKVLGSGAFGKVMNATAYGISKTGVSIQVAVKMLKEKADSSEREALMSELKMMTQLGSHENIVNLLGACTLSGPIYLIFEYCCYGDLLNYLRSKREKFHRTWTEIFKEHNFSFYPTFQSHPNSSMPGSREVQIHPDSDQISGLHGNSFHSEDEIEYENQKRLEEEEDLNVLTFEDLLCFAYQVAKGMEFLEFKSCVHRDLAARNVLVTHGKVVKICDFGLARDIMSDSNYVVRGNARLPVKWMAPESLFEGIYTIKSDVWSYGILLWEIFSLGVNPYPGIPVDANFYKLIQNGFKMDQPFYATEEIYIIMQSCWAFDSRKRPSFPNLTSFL
FGFR1 kinase, sequence (P11362 478-767): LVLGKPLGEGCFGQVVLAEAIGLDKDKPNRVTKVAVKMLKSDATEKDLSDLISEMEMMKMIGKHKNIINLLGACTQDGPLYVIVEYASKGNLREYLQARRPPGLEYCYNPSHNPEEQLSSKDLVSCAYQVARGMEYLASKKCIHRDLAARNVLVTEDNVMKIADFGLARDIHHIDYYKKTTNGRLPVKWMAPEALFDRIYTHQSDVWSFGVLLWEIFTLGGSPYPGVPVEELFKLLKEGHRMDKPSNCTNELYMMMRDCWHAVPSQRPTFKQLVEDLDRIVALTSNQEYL

With `COc1cc(-c2ccc3ncnc(Nc4ccc(O)cc4)c3c2)ccc1O` [Compound 19, 4-(4-(4-hydroxyphenylamino)quinazolin-6-yl)-2-methoxyphenol], the IC50 on B-Raf is 557 nM; on B-Raf (V600E) it was 522 nM; against C-Raf, 503 nM; against EGFR kinase it was 56.4 nM; against VEGFR2 kinase, 5400 nM; at FGFR1 kinase, 1440 nM. This compound also came in with an IC50 at FLT3 kinase of 146 nM. Also, the inhibition at 1 µM on B-Raf came to 55.8%.
In the case of `COc1cc(-c2ccc3ncnc(Nc4cccc(O)c4Cl)c3c2)ccc1O` [Compound 60, 2-chloro-3-(6-(4-hydroxy-3-methoxyphenyl)quinazolin-4-ylamino)phenol], the IC50 against B-Raf came to 39 nM; against B-Raf (V600E) it was 56.5 nM; against C-Raf it was 152 nM; in the assay on A549, 1300 ± 200 nM; in the assay with A375, 1300 ± 300 nM; in the assay on MDA-MB-231, 1700 ± 500 nM. For the same compound, in the assay on COLO205, 6800 ± 160 nM corresponded to half-maximal inhibition (IC50). For the same compound, the inhibition at 1 µM at B-Raf came to 91%.
As for `Oc1cccc(Nc2ncnc3ccc(-c4cccc(O)c4)cc23)c1` [Compound 63, 3-(6-(3-hydroxyphenyl)quinazolin-4-ylamino)phenol], the IC50 is 27.7 nM against B-Raf; 51.7 nM against B-Raf (V600E); 300 nM on C-Raf; 5300 ± 1000 nM in the assay with A549; 2300 ± 600 nM with A375; 9500 ± 1300 nM in the assay with MDA-MB-231. For the same compound, the concentration for half-maximal inhibition (IC50) in the assay on COLO205 turned out to be 7100 ± 1300 nM. In addition, the inhibition at 1 µM on B-Raf came out at 93.4%.
Consider `CS(=O)(=O)c1ccc(-c2ccc3nccc(Nc4cccc5[nH]ncc45)c3c2)cc1` [Compound 120, N-(1H-indazol-4-yl)-6-(4-(methylsulfonyl)phenyl)quinolin-4-amine], for which the IC50 against B-Raf was found to be 134 nM; at B-Raf (V600E), 119 nM; against C-Raf, 277 nM; in the assay with A549, 12100 ± 3200 nM; with A375, 8500 ± 1200 nM; in the assay with MDA-MB-231 it was 10900 ± 1400 nM. The same compound registered a 50% inhibitory concentration (IC50) in the assay with COLO205 of 7300 ± 1000 nM. The inhibition at 1 µM at B-Raf is 88.2%.
On to `COc1ccc(-c2ccc3ncnc(Nc4cccc(O)c4)c3c2)cc1` [Compound 64, 3-(6-(4-methoxyphenyl)quinazolin-4-ylamino)phenol], for which the IC50 came to 62.4 nM against B-Raf; 105 nM against B-Raf (V600E); 1230 nM on C-Raf; 11000 ± 3300 nM in the assay with A549; 6000 ± 300 nM in the assay with A375; 15600 ± 800 nM with MDA-MB-231. In the assay on COLO205, this compound yielded an IC50 of 17300 ± 1900 nM. In addition, at B-Raf, the inhibition at 1 µM was 91.9%.
On to `COc1cc(-c2cc3c(Nc4cccc(O)c4)ncnc3cc2OC)ccc1O` [Compound 31, 4-(4-(3-hydroxyphenylamino)-7-methoxyquinazolin-6-yl)-2-methoxyphenol], for which the IC50 on B-Raf is 87 nM; at B-Raf (V600E), 94 nM; at C-Raf, 781 nM; in the assay with A549, above 50000 nM; in the assay on A375, above 50000 nM; in the assay with MDA-MB-231, above 50000 nM. This compound gave a half-maximal inhibitory concentration (IC50) in the assay with COLO205 above 50000 nM. At B-Raf, the inhibition at 1 µM is 93.8%.
As for `COc1ccc(-c2ccc3ncnc(Nc4cccc5[nH]ncc45)c3c2)cc1F` [Compound 75, 6-(3-fluoro-4-methoxyphenyl)-N-(1H-indazol-4-yl)quinazolin-4-amine], the concentration for half-maximal inhibition (IC50) at B-Raf was 157 nM; against B-Raf (V600E), 221 nM; against C-Raf it was 672 nM; in the assay with A549 it was 9600 ± 1200 nM; with A375 it was 11100 ± 800 nM; in the assay on MDA-MB-231, 11600 ± 1700 nM. Half-maximal inhibition in the assay with COLO205 (IC50) was put at 18500 ± 1100 nM. Moreover, the inhibition at 1 µM at B-Raf was 85%.
